Values quoted from earlier work, collected in patent US20160271257A1, “Low Molecular Weight Immune-Modulators As Adjuvants for Specific Immunotherapy” (PLS-DESIGN GMBH, priority 2013, published 2016).
≈ marks a conversion by molar mass, not a printed value. Entries after “also recorded” stand apart in the source; their conditions may differ. Where two headings read alike, the source gives them in different places. Ends that are not written are not given here.

Columns and labels:
C3 [1] = conditions: sera from cynomolgus monkeys; read-out: IC50 of haemolytic activity
C3 [2] = conditions: 10 mg/kg i.v. bolus then 60 μg/kg/min infusion
[3] = system: C3 proteins from lower mammalian species, C4 and C5
[4] = 10 ng with 100 μg OVA
[5] = not given; remark: listed apart in the source
[6] = individuals not adhering to dietary calcium restriction
[7] = i.p. 5 μg/kg every 2 days
[8] = mouse, in vivo
NF-kappa B translocation = conditions: read-out: concentration for 50% inhibition of NF-kappa B translocation
CD3 = target: T1, CD3 (Homo sapiens, UniProt P07766); conditions: in vivo
T1 construct: endogenous in cells; host or cells: T cells of type 1 diabetes patients (clinical studies reported in the literature)
T1 sequence (P07766 23-207): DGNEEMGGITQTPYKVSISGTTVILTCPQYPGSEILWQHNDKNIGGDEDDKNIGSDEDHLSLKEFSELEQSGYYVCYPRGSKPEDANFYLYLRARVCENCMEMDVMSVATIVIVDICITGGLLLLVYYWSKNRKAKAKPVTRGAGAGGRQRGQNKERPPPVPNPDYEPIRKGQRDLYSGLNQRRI
T1 sequence (P04234 22-171 partner): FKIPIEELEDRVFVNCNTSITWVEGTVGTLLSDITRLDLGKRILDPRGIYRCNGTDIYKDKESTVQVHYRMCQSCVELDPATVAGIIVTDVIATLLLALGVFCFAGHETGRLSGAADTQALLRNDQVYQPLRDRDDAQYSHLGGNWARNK
T1 sequence (P09693 23-182 partner): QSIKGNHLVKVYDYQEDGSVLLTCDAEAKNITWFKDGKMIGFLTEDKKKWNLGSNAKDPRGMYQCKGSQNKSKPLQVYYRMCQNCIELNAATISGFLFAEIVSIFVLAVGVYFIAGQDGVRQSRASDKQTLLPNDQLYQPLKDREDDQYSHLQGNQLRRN
T1 sequence (P20963 22-164 partner): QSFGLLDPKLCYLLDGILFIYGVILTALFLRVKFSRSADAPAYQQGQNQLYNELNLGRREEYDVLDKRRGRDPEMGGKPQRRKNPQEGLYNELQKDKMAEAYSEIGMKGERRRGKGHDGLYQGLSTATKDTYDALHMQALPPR

[9] = not given; remark: listed apart in the source
[10] = not given; remark: listed apart in the source
[11] = topical pretreatment
[12] = for time detectable in serum by HPLC: rats
[13] = topical, used clinically for years
[14] = not given; remark: listed apart in the source
[15] = system: TNFR1-mediated activation of NF-kappa B
[16] = six months, budesonide 800 μg/d and cholecalciferol 500 IU
[17] = 8 days
[18] = system: isolated rat cardiomyocytes; conditions: for glutathione repletion and unmasking of TNFR2-mediated effects (reproducing in vivo NAC treatment): incubation 2-3 hours, 50 μmol/L GSM, 50 μmol/L NAC or 10 mmol/L GSH; for protection against the deleterious effects of TNF-alpha on contraction: preincubation 2-3 hours, exogenously added, 50 μM GSM
[19] = oral 1800 mg/day added to standard therapy
[20] = 3-day NAC 120 mg/kg/day, 2-month post-myocardial infarction rats
[21] = in most of the subjects
[22] = 600 mg to 1000 mg three times daily, 4 weeks
[23] = in vivo
[24] = not given; remark: listed apart in the source
[25] = 2 μg/day, 3 months
[26] = in vivo; remark: listed apart in the source
[27] = oral 4,000-40,000 IU/day, 28 weeks

For `O=C(O)c1ccccc1O` [salicylic acid], the “solubility in ethanol/water (10:90 vol)” value is given as 21 mM (≈ 2900 µg/mL), the “solubility in ethanol/water (20:80 vol)” value is given as 35 mM (≈ 4830 µg/mL) and the “solubility in ethanol/water (30:70 vol)” value is given as 81 mM (≈ 11200 µg/mL). For the same molecule, the “solubility in ethanol/water (40:60 vol)” value was 277 mM (≈ 38300 µg/mL), the “solubility in ethanol/water (50:50 vol)” value was 526 mM (≈ 72700 µg/mL) and the solubility in water (salicylic acid) was 14 mM (≈ 1930 µg/mL).
For `CC[C@H](C)[C@H](N)C(=O)N[C@H]1CSSC[C@@H](C(=O)N[C@H](C(N)=O)[C@@H](C)O)NC(=O)[C@H](CCCN=C(N)N)NC(=O)[C@H](Cc2cnc[nH]2)NC(=O)[C@H](Cc2cnc[nH]2)NC(=O)CNC(=O)[C@H](Cc2c[nH]c3ccccc23)NC(=O)[C@H](CC(=O)O)NC(=O)[C@H](CCC(N)=O)NC(=O)[C@H](C(C)C)NC(=O)[C@H](C(C)C)NC1=O` [compstatin], the IC50 (C3 [1]) is given as […], the “effect in sepsis model” value (C3 [2]) is given as “decrease the procoagulant response and to confer organ protection” and the “binding to C3 from lower mammalian species or to C4 and C5” value [3] is given as “does not bind”.
For `C=C1/C(=C\C=C2/CCC[C@]3(C)[C@@H]([C@H](C)CCCC(C)(C)O)CC[C@@H]23)C[C@@H](O)C[C@@H]1O` [1,25-(OH)2D3, 1α,25-dihydroxyvitamin D3], the airway hyper-responsiveness [4] is listed as “significantly inhibited”, the “serum OVA-specific IgE levels” value [4] is listed as “potentiated the reduction; also recorded: significant reduction” and the “progression of arthritis and hypercalcemia” value ([5]; diet, 20 ng/mouse/day) is listed as “effective in inhibiting the progression of arthritis without producing hypercalcemia”. For the same molecule, the “symptoms of Lyme arthritis (B. burgdorferi infection)” value ([5]; dietary supplementation) was “minimized or prevented”, the “symptoms of collagen-induced arthritis” value ([5]; dietary supplementation) was “prevented” and the adverse effect reported [6] was “hypercalcaemia; also recorded: hypercalcemia”. The “treated mice in which appearance of paralysis was prevented” value [7] was 70% and the “development / onset of diabetes” value [8] was “prevented”.
In the case of `CC(=O)Oc1ccccc1C(=O)O` [ASA, acetylsalicylic acid], the IC50 (NF-kappa B translocation) is given as ~3000 µM.
In the case of Otelixizumab: Fc-mutated anti CD3 mAb, the “clinical efficacy in phase III studies” value (CD3) is given as “failed to show clinical efficacy”.
In the case of `C=C1CC[C@H](O)C/C1=C/C=C1\CCC[C@]2(C)[C@@H]([C@H](C)CCCC(C)(C)O)CC[C@@H]12` [25-OH-D3, 25-hydroxyvitamin D3], the “serum levels of 25-OH-D3 to be kept below to avoid toxicity” value ([9]; based on experiments in the rat) is given as “below 250 ng/ml”, the “serum levels of 25-OH-D3 at which toxicity occurs” value ([9]; rat, in vivo) is given as ≥ 500 ng/mL and the adverse effects ([10]; 1,000 to 40,000 IU/day) is given as “no adverse effects”. The “disease progression and relapse activity” value [10, 27] was “not affected” and the “number of new lesions assessed by MRI” value [10, 27] was “significant decrease”.
For `C=C1/C(=C\C=C2/CCC[C@]3(C)[C@@H]([C@H](C)/C=C/[C@@H](O)C4CC4)CC[C@@H]23)C[C@@H](O)C[C@@H]1O` [calcipotriol], the “CD4+CD25+ Tregs” value [11] is given as “induced”, the “antigen-specific CD8+ T cell priming” value [11] is given as “abolished” and the “times less effect on calcium metabolism compared to 1,25-(OH)2D3” value (calcium metabolism; activation of calcium absorption and bone calcium mobilization) is given as 100-200 times. For the same molecule, the “effects of the metabolites, times weaker than those of the parent compound” value (calcium metabolism; in vivo) was 100 times, the “time detectable in serum by HPLC” value ([12]; i.v. 10 μg/kg) was “up to 5 min” and the “time detectable in serum by HPLC” value ([12]; i.v. 50 μg/kg) was “up to 10 min”. The half-life in circulation ([12]; rat, in vivo) was “short; also recorded: very short”, the “rate of clearance, times higher than for 1,25-(OH)2D3” value ([12]; rat, in vivo) was “approximately 140 times” and the systemic toxicity [13] was “without systemic toxicity”. The solubility in ethanol was “approx. 50 mg/ml” and the “solubility in a 1:5 solution of ethanol:PBS, pH 7.2” value (pH 7.2) was “approx. 0.15 mg/ml”.
In the case of “Teplizumab: humanized anti CD3 mAb mutated to prevent binding to Fc receptors”, the “clinical efficacy in phase III studies” value (CD3) is given as “failed to show clinical efficacy”.
In the case of TFGLQLELT [nonapeptide 180-188], the “rats showing clinical symptoms of adjuvant arthritis during pretreatment period” value ([14]; i.p. 100 μg in FIA) is listed as “none of the rats” and the “rats completely protected against subsequently induced adjuvant arthritis” value ([14]; three times 100 μg in FIA) is listed as 11 out of 16.
In the case of `O=C([O-])c1ccccc1O.[Na+]` [sodium salicylate], the “dose required for inhibition of TNFR1-mediated activation of NF-kappa B” value [15] is given as 10 to 20 mM.
In the case of `C=C1CC[C@H](O)C/C1=C/C=C1\CCC[C@]2(C)[C@@H]([C@H](C)CCCC(C)C)CC[C@@H]12` [cholecalciferol], the “children who experienced asthma exacerbation” value [16] is listed as 17%.
For `CC(=O)N[C@@H](CS)C(=O)O` [NAC, N-acetyl-L-cysteine], the “decrease of ovalbumin-specific IgE and IgG1” value ([17]; 0.5 g/liter in drinking water) is listed as ~30%, the “decrease of ovalbumin-specific IgE and IgG1 responses” value ([17]; 1.0 g/liter in drinking water) is listed as “more than 70%” and the “glutathione repletion and unmasking of TNFR2-mediated effects (reproducing in vivo NAC treatment)” value (from here on “glutathione repletion and unmasking”) [18] is listed as “could not reproduce”. For the same molecule, the “protection against the deleterious effects of TNF-alpha on contraction” value [18] was “not protected”, the “cytotoxicity to resting T cells” value (peripheral blood T cells; 1 mM to 20 mM, 3 days, seven donors) was “nontoxic” and the “effect on T cell function and growth” value (peripheral blood T cells; 10 mM) was “effective enhancer of T cell function and enhancer of growth”. The “primary end points including vital capacity” value [19] was “better”, the “GSH content of the left ventricle, % of control level in sham rats” value [20] was 75% and the highest non-toxic dose [21] was 800 mg/m^2/day. For the same molecule, the “safety and effect on blood neutrophil GSH, airway neutrophil count and elastase activity” value [22] was “safe and effective”.
For Ac-Phe-[Orn-Pro-DCha-Trp-Arg] [PMX53], the half-life [23] is listed as 1.17 h.
For `N[C@@H](CCC(=O)N[C@@H](CS)C(=O)NCC(=O)O)C(=O)O` [GSH, glutathione], the “glutathione repletion and unmasking” value [18] is given as “could not reproduce”.
For “R121D/Y124D: human IL-4 double mutant antagonizing IL-4 and IL-13”, the “cutaneous wheal response and circulating allergen-specific IgE” value (IL-4 and IL-13; subcutaneous, 6 weeks or more) is listed as “reduced” and the allergen-induced airways hyper-responsiveness (IL-4 and IL-13; subcutaneously or via nebulisation) is listed as “protect”.
In the case of vitamin D, the “relative risk of type 1 diabetes over the subsequent 30 years” value ([24]; doses of exactly 50 μg/day) is given as 0.22, the “relative risk of type 1 diabetes over the subsequent 30 years” value ([24]; regular, doses of over 50 μg/day (2000 IU/d)) is given as 0.14 and the “relative risk of developing type 1 diabetes” value ([24]; supplements given irregularly) is given as 0.16. For the same molecule, the “relative risk of developing type 1 diabetes” value ([24]; supplements given regularly) was 0.12.
For `C=C1/C(=C\C=C2/CCC[C@]3(C)[C@@H]([C@H](C)CCCC(C)C)CC[C@@H]23)C[C@@H](O)C[C@@H]1O` [alfacalcidiol], the “patients going into remission” value [25] is given as 45% and the “patients with improvement of disease activity” value [25] is given as 89%.
For `O=C(O)c1ccccc1O` [salicylate], the “levels at which tinnitus may occasionally occur” value [26] is listed as ≥ 95000 ng/mL.
In the case of `CSC[C@H](NC(=O)CC[C@H](N)C(=O)O)C(=O)NCC(=O)O` [GSM, S-methylglutathione], the “glutathione repletion and unmasking” value [18] is given as “achieved”, the “protection against the deleterious effects of TNF-alpha on contraction” value [18] is given as “protected” and the solubility in water is given as 8.1 mM (≈ 2600 µg/mL).
